From patent US20230057984A1, “NORMALIZATION OF CULTURE OF CORNEAL ENDOTHELIAL CELLS” (KYOTO PREFECTURAL PUBLIC UNIVERSITY CORPORATION, priority 2011, published 2023) come the findings set out here.

The experiment has as its system Cynomolgus monkey corneal endothelial cells. Description: Culture of monkey corneal endothelial cells with SB431542, cell form by phase-contrast microscope (Example 2). Format: cell-based. Particulars: primate CEC primary culture, base culture medium with 1 μmol/l SB431542; control showed fibroblast phenotype. Here is the method: • Cynomolgus monkey corneal endothelial cells (MCEC; source of supply and culturing method): the MCECs were cultured by the improved-type protocol described previously [Koizumi N, et al. (2007) Invest Ophthalmol Vis Sci 48: 4519-4526], [Li W, et al. (2007) Invest Ophthalmol Vis Sci 48: 614-620]. Briefly speaking, eyeballs of cynomolgus monkeys, which were humanely killed for another purpose, were purchased (Nissei Bilis Co., Ltd., Ohtsu, Japan and Keari Co., Ltd., Wakayama, Japan) (the method is described above). The Descemet's membrane including corneal endothelial cells were exfoliated, and the corneal endothelial cells were mechanically exfoliated together with basement membranes, followed by treatment using dispase or collagenase (ROCHE catalog number: 10 103 586 001) and then primary culture. Typically, treatment was performed using 1 mg/mL collagenase A (Roche Applied Science, Penzberg, Germany) at 37° C. for 2 hours. For the culture medium, DMEM (INVITROGEN catalog number 12320) was used with 10% FBS (BIOWEST, catalog number: S1820-500) and 2 ng/ml basic FGF (INVITROGEN, catalog number: 13256-029) added thereto. […] In addition, after the cells were fixed, immunostaining was performed using ZO-1, Na^+/K^+-ATPase as a function-associated marker, followed by observation through a fluorescence microscope. […]

Take `NC(=O)c1ccc(-c2nc(-c3ccc4c(c3)OCO4)c(-c3ccccn3)[nH]2)cc1` [SB431542]: the “cell form in phase difference images” value is “a true shape of a polygonal cell and a single layer of a contact inhibition type”.
